The results in this text go back to US20190365843A1, “Antimicrobial Activity of Bioactive Compounds and Their Derivatives” (priority 2018, published 2019).

In one assay the test system is EAEC. The assay is described as follows: Agar diffusion growth inhibition zone, EAEC. Format: cell-based, Enteroaggregative E. coli. Conditions: Escherichia coli, 100 mg, 6 mm = no activity. On the procedure:
(§1) Among the bacterial agents tested Gram positive and Gram negative bacterial groups represented by Staphylococcus aureus and Enterococcus species and pathogenic members of Enterobacteriaceae, Vibronaceae, Aeromonadaceae, Pseudomonadaceae were tested. Freshly sub-cultured bacterial strains were inoculated into peptone water and incubated for 4 hours at 37° C. and adjusted to a turbidity of 0.5 (Gram Negative Bacilli), 1 (Gram Positive Cocci) and 4 (Pus cells, GNB, & few Budding yeast cells) Mc Farland standards (10^8 CFU/ml) respectively.
(§2) The different bioactive compounds and their derivatives were dissolved and diluted with solvents (DMSO), number of subsequent dilutions was performed to obtain different concentrations of the bioactive compounds and their derivatives. (Working Concentrations).
(§3) Agar well diffusion method is widely used to evaluate the antimicrobial activity of plants or other synthetic products. The suspension (microbial inoculum) was used to inoculate into Muller Hinton Agar Petri plates by lawn culture. Well (diameter 6 mm) were punched in the agar by sterile borer and filled with 50 μl of dissolved extracts. Plates were incubated in incubator at 37° C. for 24 hours and measured the growth inhibition zone diameters in mm compared with that of control (DMSO) showing no growth.
(§4) The bioactive compounds were tested with desired concentrations in 6 mm filter paper discs (Whatman, no. 3) were impregnated with 10 μL of each of the different dilutions. The discs were allowed to remain at room temperature until complete diluent evaporation and kept under refrigeration until ready to be used. 10 μL of diluents used to products were used as control. Tests were performed by Agar disk-diffusion testing method, which is the official method used in many clinical microbiology laboratories for routine antimicrobial susceptibility testing.
(§5) Similar to the procedure used in Agar well diffusion method, the suspension (microbial inoculum) was used to inoculate into Muller Hinton Agar Petri plates by lawn culture. Then, filter paper discs (about 6 mm in diameter), containing the test compound at a desired concentration, were placed on the agar surface. The Petri dishes were incubated under suitable incubation conditions.
(§6) Bioactive compounds showing zone of inhibition beyond the size of 6 mm are considered to be having an anti-microbial activity.
(A growth-free zone around the sample is the usual read-out of agar diffusion tests.)

A further assay deals with S. aureus. The assay is described as follows: Agar diffusion growth inhibition zone, S. aureus. It counts as cell-based, Staphylococcus aureus. To be noted: Staphylococcus aureus, 100 mg, 6 mm = no activity. On the procedure: as §1, §2, §3, §4, §5, §6
Another assay concerns Enterococcus sp. The assay is described as follows: Agar diffusion growth inhibition zone, Enterococcus sp. It counts as cell-based, Enterococcus species. Conditions: 100 mg, 6 mm = no activity. The method, then:
as §1, §2, §3, §4, §5, §6

A further assay has as its system Pseudomonas sp. The assay can be described thus: Agar diffusion growth inhibition zone, Pseudomonas sp. Format: cell-based, Pseudomonas species. Conditions: Pseudomonas.
For another assay, the system named is Vibrio cholera. The assay is described as follows: Agar diffusion growth inhibition zone, Vibrio cholera. Format: cell-based, Vibrio cholerae. To be noted: Vibrio cholerae.
For the next assay, the system named is Citrobacter sp. The assay is described as follows: Agar diffusion growth inhibition zone, Citrobacter sp. To be noted: 100 mg, 6 mm = no activity. Format: cell-based, Citrobacter species. The method, then:
as §1, §2, §3, §4, §5, §6

The subject of a further assay is Pleisiomonas sp. The assay is described as follows: Agar diffusion growth inhibition zone, Pleisiomonas sp. Format: cell-based, Pleisiomonas species. Conditions: for zone of inhibition at 100 mg/mL: Pleisiomonas sp., 6 mm = no activity; for inhibition of growth: Plesiomonas species. The method, then: as §1, §2, §3, §4, §5, §6
For another assay, the system named is Shigella sp. The assay can be described thus: Agar diffusion growth inhibition zone, Shigella sp. Format: cell-based, Shigella species. Conditions: Shigella.
For another assay, the system named is Klebsiella sp. The assay can be described thus: Agar diffusion growth inhibition zone, Klebsiella sp. It counts as cell-based, Klebsiella species. Conditions: 100 mg, 6 mm = no activity. On the procedure:
as §1, §2, §3, §4, §5, §6

In the next assay the test system is Salmonella typhimurium. The assay is described as follows: Agar diffusion growth inhibition zone, Salmonella typhimurium. Format: cell-based. Conditions: Salmonella enterica, 100 mg, 6 mm = no activity. On the procedure: as §1, §2, §3, §4, §5, §6
The subject of the next assay is Candida abicans. The assay can be described thus: Agar diffusion growth inhibition zone, Candida abicans. It counts as cell-based, Candida albicans. Conditions: 100 mg, 6 mm = no activity. The method, then:
as §1, §2, §3, §4, §5, §6

In a further assay the test system is E. coli ATCC 25922. The assay can be described thus: Agar diffusion growth inhibition zone, E. coli ATCC 25922. It counts as cell-based. To be noted: Escherichia coli, ATCC25922, 100 mg, 6 mm = no activity. The method, then:
as §1, §2, §3, §4, §5, §6

The subject of a further assay is Aeromonas sp. The assay can be described thus: Agar diffusion growth inhibition zone, Aeromonas sp. Conditions: Aeromonas sp.; 100 mg; 6 mm = no activity. It counts as cell-based, Aeromonas species. On the procedure:
as §1, §2, §3, §4, §5, §6

Protocol for Vibrio cholera: Agar well diffusion method is widely used to evaluate the antimicrobial activity of plants or other synthetic products. The suspension (microbial inoculum) was used to inoculate into Muller Hinton Agar Petri plates by lawn culture. Well (diameter 6 mm) were punched in the agar by sterile borer and filled with 50 μl of dissolved extracts. Plates were incubated in incubator at 37° C. for 24 hours and measured the growth inhibition zone diameters in mm compared with that of control (DMSO) showing no growth. The antimicrobial agent diffuses in the agar medium and inhibits the growth of the microbial strain tested (Valgas et al., (2016) Methods for in vitro evaluating antimicrobial activity: A review. Journal of Pharmaceutical Analysis. 6(2):71-9).
Similar to the procedure used in Agar well diffusion method, the suspension (microbial inoculum) was used to inoculate into Muller Hinton Agar Petri plates by lawn culture. Then, filter paper discs (about 6 mm in diameter), containing the test compound at a desired concentration, were placed on the agar surface. The Petri dishes were incubated under suitable incubation conditions. Generally, antimicrobial agent diffuses into the agar and inhibits germination and growth of the test microorganism and then the diameters of inhibition growth zones are measured (Valgas et al., (2007) Screening methods to determine antibacterial activity of natural products. Brazilian Journal of Microbiology. 38:369-80; Balouiri M et al., (2016) Methods for in vitro evaluating antimicrobial activity: A review. Journal of Pharmaceutical Analysis. 6(2):71-9).

With `COc1cc(/C=C/C(=O)COC(=O)/C=C/c2ccc(O)cc2)ccc1O` [compound 11, Demethoxycalebin- A1], the zone of inhibition at 100 mg/mL with EAEC, in the assay on S. aureus, in the assay on Enterococcus sp., in the assay on Citrobacter sp., with Pleisiomonas sp. and in the assay with Klebsiella sp. was 6 mm each time. Moreover, the zone of inhibition at 100 mg/mL with Salmonella typhimurium, in the assay on Candida abicans, in the assay with E. coli ATCC 25922 and with Aeromonas sp. was 6 mm throughout. For the same molecule, the zone of inhibition at 100000 µg/disc in the assay on Pseudomonas sp., in the assay with Vibrio cholera and with Shigella sp. was 6 mm in each case.

For `COc1cc(/C=C/C(=O)OCC(=O)/C=C/c2ccc(O)cc2)ccc1O` [compound 12, Demethoxycalebin- A2], the zone of inhibition (as a rule, the size of the clear area around the sample on an inoculated plate) at 100 mg/mL in the assay on EAEC stood at 6 mm; in the assay with S. aureus, 6 mm; in the assay with Enterococcus sp. it was 6 mm; with Citrobacter sp., 6 mm; with Pleisiomonas sp. it was 10 mm; in the assay with Klebsiella sp., 6 mm. For the same molecule, the zone of inhibition at 100 mg/mL with Salmonella typhimurium, in the assay with Candida abicans, in the assay on E. coli ATCC 25922 and in the assay with Aeromonas sp. was 6 mm throughout. In addition, the zone of inhibition at 100000 µg/disc with Pseudomonas sp., in the assay with Vibrio cholera and with Shigella sp. was 6 mm in each case.

`O=C(/C=C/c1ccc(O)cc1)COC(=O)/C=C/c1ccc(O)cc1` [compound 13, Bisdemethoxycalebin- A]: the zone of inhibition at 100 mg/mL with EAEC was found to be 6 mm; in the assay with S. aureus it was 6 mm; in the assay with Enterococcus sp., 6 mm; with Citrobacter sp., 6 mm; in the assay with Pleisiomonas sp., 9 mm; with Klebsiella sp. it was 6 mm. The zone of inhibition at 100 mg/mL in the assay on Salmonella typhimurium, in the assay on Candida abicans, in the assay on E. coli ATCC 25922 and in the assay on Aeromonas sp. was 6 mm each time. In addition, the zone of inhibition at 100000 µg/disc in the assay with Pseudomonas sp., with Vibrio cholera and in the assay on Shigella sp. was 6 mm in each case. The “inhibition of growth” value in the assay on Pleisiomonas sp. is on record as “inhibited”.

Take Demethoxycalebin-A: the “inhibition of growth” value with Pleisiomonas sp. was “inhibited”.
